The record followed here is US7101875B2, “Methods for treating arthritic disorders” (Wyeth, priority 2001, dated 2006).

The first data set has as its target T1, cPLA2 (Homo sapiens, UniProt P47712).
T1 sequence (P47712 1-749): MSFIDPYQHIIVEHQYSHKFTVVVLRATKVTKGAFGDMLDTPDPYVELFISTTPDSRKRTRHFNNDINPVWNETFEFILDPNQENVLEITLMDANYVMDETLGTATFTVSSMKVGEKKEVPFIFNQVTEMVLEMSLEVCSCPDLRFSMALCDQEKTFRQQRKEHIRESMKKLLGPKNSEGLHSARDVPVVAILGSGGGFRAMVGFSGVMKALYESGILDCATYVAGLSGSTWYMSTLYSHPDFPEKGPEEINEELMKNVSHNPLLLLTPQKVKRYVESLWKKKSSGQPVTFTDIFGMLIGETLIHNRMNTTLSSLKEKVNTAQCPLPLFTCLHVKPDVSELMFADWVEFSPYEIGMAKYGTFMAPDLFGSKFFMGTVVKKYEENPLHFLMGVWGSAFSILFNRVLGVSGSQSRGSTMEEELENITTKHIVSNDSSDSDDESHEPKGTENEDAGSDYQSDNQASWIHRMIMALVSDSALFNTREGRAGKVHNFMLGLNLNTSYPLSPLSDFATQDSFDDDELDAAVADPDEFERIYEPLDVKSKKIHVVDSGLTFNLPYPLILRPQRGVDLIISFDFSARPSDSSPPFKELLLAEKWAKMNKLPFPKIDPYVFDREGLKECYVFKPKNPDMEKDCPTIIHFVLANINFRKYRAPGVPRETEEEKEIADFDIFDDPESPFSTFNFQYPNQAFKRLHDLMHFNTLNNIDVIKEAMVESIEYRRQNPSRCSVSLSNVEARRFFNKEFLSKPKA
In words: Coumarine Assay (hydrolysis of 7-hydroxycoumarinyl 6-heptenoate by cPLA2, fluorometric). The data set is classed as biochemical. The following applies: 60 μM 7-hydroxycoumarinyl 6-heptenoate substrate, 4 μg cPLA2, pH 7.5, excitation 360 nm / emission 460 nm; read-out: Coumarin IC50.
Description: Inhibitors were mixed with 200 μL assay buffer (80 mM Heped, pH 7.5, 1 mM EDTA) containing 60 μM 7-hydroxycoumarinyl 6-heptenoate. The reaction was initiated by adding 4 μg cPLA2 in 50 μL assay buffer. Hydrolysis of the 7-hydroxycounarimyl 6-heptenoate ester was monitored in a fluorometer by exciting at 360 nm and monitoring emission at 460 nm. Enzyme activity is proportional to the increase in emission at 460 nm per minute. In the presence of a cPLA2 inhibitor, the rate of increase is less.
On to `CC(Cc1ccc(C(=O)O)cc1)c1c(CCNS(=O)(=O)Cc2ccccc2[N+](=O)[O-])n(C(c2ccccc2)c2ccccc2)c2ccc(Cl)cc12` (stereo not drawn) [Example 56, 4-{2-[1-Benzhydryl-5-chloro-2-{2-[({2-nitrobenzyl}-sulfonyl)amino]ethyl}-1H-indol-3-yl)propyl]benzoic acid], for which the half-maximal inhibitory concentration (IC50) came to 130 nM.
The same measure, in the same setting: for `O=C(O)c1ccc(OCCc2c(CCNS(=O)(=O)Cc3ccc(Cl)c(Cl)n3)n(C(c3ccccc3)c3ccccc3)c3ccc(Cl)cc23)cc1` [Example 76] the value was 400 nM; for “4-{2-[1-Benzhydryl-5-chloro-2-{2-[({2-trifluoromethylsulfonylbenzene}-sulfonyl)amino]ethyl}-1H-indol-3-yl)propyl]benzoic acid [Example 208]”, 240 nM.
With “4-{2-[1-benzhydryl-5-chloro-2-(2-{[(2,6-dimethylbenzyl)sulfonyl]amino}ethyl)-1H-indol-3-yl]ethoxy}benzoic acid [Example 279]”, the IC50 was determined as 160 nM.
The same measure, in the same setting: for “4-[2-(1-benzhydryl-5-chloro-2-{2-[({2-[(3R,5S)-3,5-dimethylmorpholin-4-yl]ethyl}sulfonyl)amino]ethyl}-1H-indol-3-yl)ethoxy]benzoic acid [Example 250]” the value was 2100 nM.
On the same count and under the same terms, for `COc1ccccc1SCS(=O)(=O)NCCc1c(CCOc2ccc(C(=O)O)cc2)c2cc(Cl)ccc2n1C(c1ccccc1)c1ccccc1` [Example 83] the value was 450 nM; for `CC(C)Oc1cc(OCCc2c(CCNS(=O)(=O)Cc3ccc(Cl)c(Cl)c3)n(C(c3ccccc3)c3ccccc3)c3ccc(Cl)cc23)ccc1C(=O)O` [Example 300, 4-{2-[1-benzhydryl-5-chloro-2-(2-{[(3,4-dichlorobenzyl)sulfonyl]amino}ethyl)-1H-indol-3-yl]ethoxy}-2-isopropoxybenzoic acid], over 2000 nM; for “2-{2-[1-Benzhydryl-5-chloro-2-(2-phenylmethanesulfonylamino-ethyl)-1H-indol-3-yl]-ethoxy}-benzoic acid [Example 283]”, 500 nM.
Still for that read-out and setting: for `Nc1ccccc1CS(=O)(=O)NCCc1cc(OCCc2cn(C(c3ccccc3)c3ccccc3)c3ccc(Cl)cc23)ccc1C(=O)O` [Example 16, 2-(2-{[(2-Aminobenzyl)sulfonyl]amino}ethyl)-4-{2-[1-benzhydryl-5-chloro-1H-indol-3-yl]ethoxy}benzoic acid] the value was 980 nM.

Tested on in another data set: not given
Test: not given
Conditions: not given
`O=C(O)c1ccc(OCCc2c(CCNS(=O)(=O)Cc3ccc(Cl)c(Cl)c3)n(C(c3ccccc3)c3ccccc3)c3ccc(Cl)cc23)cc1F` [Example 296, 4-{2-[1-benzhydryl-5-chloro-2-(2-{[(3,4-dichlorobenzyl)sulfonyl]amino}ethyl)-1H-indol-3-yl]ethoxy}-2-fluorobenzoic acid] yielded a melting point of 117 to 119 °C.
On the same count and under the same terms, for `CC(C)(Cc1ccc(S(=O)(=O)CCc2c(CCNS(=O)(=O)Cc3ccc(Cl)c(Cl)c3)n(C(c3ccccc3)c3ccccc3)c3ccc(Cl)cc23)cc1)C(=O)O` [Example 298, 3-[4-({2-[1-benzhydryl-5-chloro-2-(2-{[(3,4-dichlorobenzyl)sulfonyl]amino}ethyl)-1H-indol-3-yl]ethyl}sulfonyl)phenyl]-2,2-dimethylpropanoic acid] the value was 207 to 208 °C; for `O=C(O)c1ccc(OCCc2c(CCNS(=O)(=O)Cc3ccccc3Cl)n(C(c3ccccc3)c3ccccc3)c3ccc(Cl)cc23)cc1F` [Example 297, 4-{2-[1-benzhydryl-5-chloro-2-(2-{[(2-chlorobenzyl)sulfonyl]amino}ethyl)-1H-indol-3-yl]ethoxy}-2-fluorobenzoic acid], 132 to 135 °C.
